Results published in US20180265463A1, “Vitamin D3 Derivatives and Pharmaceutical Use Thereof” (Kyoto University, priority 2014, published 2018).
Entries after “also recorded” stand apart in the source; their conditions may differ. Where two headings read alike, the source gives them in different places.

What was measured:
Type in all cases: cell-based, Chinese hamster
SREBP = assay: SRE-driven luciferase reporter assay of SREBP activation; details: luciferase reporter in CHO-K1 cells, lipid-depleted medium, 20-24 h, normalized to β-galactosidase, averages of three independent experiments, read-out: IC50 (μM), inhibitory effect on the activation of SREBP
Experimental: The transfected cells were treated with DMSO alone, sterols (10 μg/mL cholesterol and 1.0 μg/mL 25-HC), or varied concentrations of 25(OH)D in a medium containing lipid-free serum. Luciferase activity was measured after 20 h incubation, and the data were normalized to β-galactosidase activity. Values are the mean±SD of three independent experiments.
The molecules in a chemical library which consists of 280 endogenous lipid related molecules were screened for their ability to inhibit the expression of a luciferase reporter gene. In this gene, three repeats of sterol regulatory elements (SREs) control expression of luciferase. Lipid depletion activates SREBPs, which bind to the SRE domain and work as transcription factors to express luciferase. The SREBP-responsive reporter construct was co-transfected into Chinese hamster ovary K1 (CHO-K1) cells, along with a control β-galactosidase (β-gal) reporter gene. A constitutively active actin promoter in the reporter gene drives the expression of β-gal. The levels of luciferase expression from the SREBP-responsive reporter gene were normalized to the levels of β-gal expression.
CHO-K1 cells were maintained in a medium A (1:1 mixture of Ham's F-12 medium and Dulbecco's modified Eagle medium, supplemented with 100 units/mL penicillin, 100 μg/mL streptomycin sulfate, and 5% (v/v) fetal bovine serum) at 37° C. under humidified 5% CO2.
On day 0, CHO-K1 cells were added to 96-well plates at 1.0×10^4 cells per well in medium A. On day 1, the cells were co-transfected with an SRE-1-driven luciferase reporter construct (pSRE-Luc) and pAc-β-gal at a 20/1 ratio, using FuGENE(Registered trademark) HD transfection reagent (Promega), according to the manufacturer's protocol. After 8-12 h of incubation, the cells were washed with PBS buffer, then incubated in medium B containing the specific test compounds. […] After 20-24 h of incubation, the cells in each well were lysed by freeze-thaw with Reporter Lysis Buffer (Promega), and aliquots were used to measure luciferase and β-galactosidase activities. Luciferase activity was measured using the Steady-Glo(Registered trademark) Luciferase Assay System (Promega), and β-galactosidase activity was measured using the β-galactosidase Enzyme Assay System (Promega). Luciferase activity was normalized to β-galactosidase activity.

SREBP-2 = assay: Western-blot analysis of SREBP-2 in CHO-K1 cells; details: 5 μM; for levels of the mature form of SREBP versus DMSO: 16 h, CHO-K1 cells (FIG. 7, FIG. 8)
Experimental: CHO-K1 cells were treated with DMSO alone or each molecule (5 μM) for 18 h. The levels of precursor and mature forms of SREBP-2 were analyzed by Western-blot. Western-blots of actin are shown in lower panel as a loading control.
CHO-K1 cells were treated with DMSO alone or each molecule (5 μM) for 16 h. The levels of precursor and mature forms of SREBP-2 were analyzed by Western-blot. Western-blots of actin are shown in lower panel as a loading control.
On day 0, CHO-K1 cells were added to 6-well plates at 3.0×10^5 cells per well in medium A. On day 1, the cells were washed with PBS, and then incubated in medium B in the absence or presence of specific test compounds (5 μM). After 16 h of incubation, the cells were washed three times with cold PBS, and lysed with a buffer A (50 mM Tris-HCl (pH 7.5), 150 mM NaCl, 1% (v/v) Nonidet P40, 0.5% (w/v) sodium deoxycholate, 8 M urea, and protease inhibitor cocktail (Nacalai)). The cell lysate were passed 16 times through a 25 G needle and centrifuged at 7,000 g at 4° C. for 10 min. The supernatants were transferred to new tubes, and the pellets were extracted with a buffer A. The resulting buffer was centrifuged at 7,000 g at 4° C. for 10 min, and the supernatants were combined to the previous ones. The resulting lysate was mixed with 0.20 volume of 6×SDS sample buffer (Nacalai) and incubated at room temperature for 30 min. The samples were separated on a 10% SDS-PAGE gel and blotted, using mouse monoclonal antibodies against SREBP-2 (IgG-7D4), SCAP (IgG-9D5), c-Myc (IgG1-MC045), and actin (AC-40). The specific bands were visualized using enhanced chemiluminescence (ECL Prime Western Blotting Detection Reagent, GE Healthcare) on an ImageQuant LAS 500 (GE Healthcare).

[1] = tested on: SREBP-2 fragment fused to PLAP (PLAP-BP2513-1141); assay: PLAP-BP assay (secreted alkaline phosphatase reporter of SREBP translocation and processing); details: VD derivatives 10 μM, 20 h, CHO-K1 co-transfected with PLAP-BP2 and SCAP; average of two experiments

Row | Compound | IC50 (SREBP) [µM] | levels of the mature form of SREBP versus DMSO (SREBP-2) | IC50 (SREBP; Cricetulus griseus) [µM] | also measured
1 | C=C1C(=CC=C2CCCC3(C)C2CCC3C(C)CCCC(C)C)CC(O)CC1NC(C)=O (stereo not drawn) [Compound 22a, 1α-NHAc VD3] | 3.24 | lower than that of DMSO | – | –
2 | 1α-NH(p-CF3Bz) VD3 [Compound 38] | 1.76 | lower than that of DMSO | – | –
3 | C[C@H](CCCC(C)(C)O)[C@H]1CC[C@H]2/C(=C/C=C3/C[C@@H](O)C[C@H](N4C(=O)c5ccccc5C4=O)C3)CCC[C@]12C [Compound 87, 19-Nor 1α-NPhth-3β-OH VD3] | – | – | 0.52 | –
4 | 19-Nor 1β-NH(p-SCF3Bz)-3β-OH VD3 [Compound 74] | 1.11 | – | – | –
5 | C[C@H](CCCC(C)(C)O)[C@H]1CC[C@H]2/C(=C/C=C3/C[C@@H](O)C[C@H](NS(=O)(=O)c4cccc5c(N(C)C)cccc45)C3)CCC[C@]12C [Compound 91, 19-Nor 1α-NHDns-3β-OH VD3] | – | – | 1.17 | –
6 | C[C@H](CCCC(C)(C)O)[C@H]1CC[C@H]2/C(=C/C=C3/C[C@@H](O)C[C@H](NC(=O)C(F)(F)F)C3)CCC[C@]12C [Compound 90, 19-Nor 1α-NH(Trifluoroacetyl)-3β-OH VD3] | – | – | 0.83 | –
7 | C=C1/C(=C\C=C2/CCC[C@]3(C)[C@@H]([C@H](C)CCCC(C)(C)O)CC[C@@H]23)C[C@@H](O)C[C@@H]1O [1,25(OH)2D, 1α,25-dihydroxyvitamin D3] | – | – | – | secretion of PLAP [1]: inhibited the secretion of PLAP to a greater extent than sterol; also recorded: caused a greater decrease in PLAP secretion than did cholesterol
8 | 1α-OH-3α-NHPhth VD3 [Compound 77] | 1.55 | – | – | –
9 | C=C1/C(=C\C=C2/CCC[C@]3(C)[C@@H]([C@H](C)CCCC(C)(C)O)CC[C@@H]23)C[C@@H](O)C[C@@H]1NCC1CC1 [Compound 49, 1α-NH(Cyclopropylmethyl) VD3] | – | – | 16 | –
10 | C=C1C(=CC=C2CCCC3(C)C2CCC3C(C)CCCC(C)C)CC(O)CC1NC(=O)OCc1ccccc1 (stereo not drawn) [Compound 36, 1α-NHCbz VD3] | 1.38 | lower than that of DMSO | – | –
11 | C[C@H](CCCC(C)(C)O)[C@H]1CC[C@H]2/C(=C/C=C3/C[C@@H](O)C[C@H](NS(C)(=O)=O)C3)CCC[C@]12C [Compound 89, 19-Nor 1α-NHMs-3β-OH VD3] | – | – | 3.34 | –
12 | 1α-NHNs VD3 [Compound 28] | 0.68 | lower than that of DMSO | – | –
13 | 19-Nor 1β-NPhth-3β-OH VD3 [Compound 76] | 2.05 | – | – | –
14 | 19-Nor 1β-NHTs-3β-OH VD3 [Compound 72] | 1.69 | – | – | –
15 | C=C1C(=CC=C2CCCC3(C)C2CCC3C(C)CCCC(C)C)CC(O)CC1NC(C)=O (stereo not drawn) [Compound 22b, 1β-NHAc VD3] | 3.56 | lower than that of DMSO | – | –
16 | C=C1C(=CC=C2CCCC3(C)C2CCC3C(C)CCCC(C)C)CC(O)CC1NC(=O)OC(C)(C)C (stereo not drawn) [Compound 18a, 1α-NHBoc VD3] | 0.82 | – | – | –
17 | C[C@H](CCCC(C)(C)O)[C@H]1CC[C@H]2/C(=C/C=C3/C[C@@H](O)C[C@H](NC(=O)c4ccc(SC(F)(F)F)cc4)C3)CCC[C@]12C [Compound 86, 19-Nor 1α-NH(p-SCF3Bz)-3β-OH VD3] | – | – | 0.53 | –
18 | C=C1C(=CC=C2CCCC3(C)C2CCC3C(C)CCCC(C)C)CC(O)CC1NS(=O)(=O)c1ccc(C)cc1 (stereo not drawn) [Compound 32, 1α-NHTs VD3] | 0.61 | lower than that of DMSO | – | –
19 | Cc1ccc(S(=O)(=O)N[C@@H]2C/C(=C\C=C3/CCC[C@]4(C)[C@@H]([C@H](C)CCCC(C)(C)O)CC[C@@H]34)C[C@@H](O)C2)cc1 [Compound 85, 19-Nor 1α-NHTs-3β-OH VD3] | – | – | 0.52 | –
20 | C[C@H](CCCC(C)(C)O)[C@H]1CC[C@H]2/C(=C/C=C3/C[C@@H](O)C[C@H](F)C3)CCC[C@]12C [Compound 98, 19-Nor 1α-F-3β-OH VD3] | – | – | 1.59 | –
21 | 1α-OH-3α-NHTs VD3 [Compound 73] | 2.71 | – | – | –
22 | C=C1/C(=C\C=C2/CCC[C@]3(C)[C@@H]([C@H](C)CCCC(C)(C)O)CC[C@@H]23)C[C@@H](O)C[C@@H]1NC(=O)c1ccc(Br)cc1 [Compound 39, 1α-NH(p-BrBz) VD3] | – | lower than that of DMSO | 0.97 | –
23 | C[C@H](CCCC(C)(C)O)[C@H]1CC[C@H]2[C@@H]3CC=C4C[C@@H](O)CC[C@]4(C)[C@H]3CC[C@]12C [Compound 25-HC, 25-hydroxycholesterol, reference compound] | – | – | – | level of mature form of SREBP (SREBP-2; 18 h, CHO-K1 cells (FIG. 3)): disappeared; level of precursor form of SREBP (SREBP-2; 18 h, CHO-K1 cells (FIG. 3)): accumulated
